In BindingDB's records for doi:10.1111/cbdd.12116 (University of Troms&#163, 2013):

These compounds were tested against Sodium-dependent serotonin transporter (Rattus norvegicus, UniProt P31652) (assay: In vitro Binding Affinity Assay). Conditions: pH 7.7; 25 °C.
Experimental: The assay was performed in accordance with the method described by Owens et al. with slight modifications. Rat cerebral cortex was homogenized in 30 volumes of ice-cold 50mM Tris-HCl containing 150mM NaCl and 5mM KCl, pH 7.7, at 25°C and centrifuged at 20,000 x g for 20 min. Pellet was resuspended in 30 volumes of buffer and centrifuged again for 2 more times. The mixture of 240uL of the tissue suspension, 30uL of 1µM imipramine, 30uL of 1nM [3H]-citalopram and 100µL of the analyzed compound (10^-10 to 10^-4M) were incubated at 22°C for 1 h. Incubations were terminated by vacuum filtration and washed twice with 100µL of ice-cold buffer. The radioactivity was measured using a WALLAC 1409 DSA liquid scintillation counter.

Chain of Sodium-dependent serotonin transporter (P31652 whole entry): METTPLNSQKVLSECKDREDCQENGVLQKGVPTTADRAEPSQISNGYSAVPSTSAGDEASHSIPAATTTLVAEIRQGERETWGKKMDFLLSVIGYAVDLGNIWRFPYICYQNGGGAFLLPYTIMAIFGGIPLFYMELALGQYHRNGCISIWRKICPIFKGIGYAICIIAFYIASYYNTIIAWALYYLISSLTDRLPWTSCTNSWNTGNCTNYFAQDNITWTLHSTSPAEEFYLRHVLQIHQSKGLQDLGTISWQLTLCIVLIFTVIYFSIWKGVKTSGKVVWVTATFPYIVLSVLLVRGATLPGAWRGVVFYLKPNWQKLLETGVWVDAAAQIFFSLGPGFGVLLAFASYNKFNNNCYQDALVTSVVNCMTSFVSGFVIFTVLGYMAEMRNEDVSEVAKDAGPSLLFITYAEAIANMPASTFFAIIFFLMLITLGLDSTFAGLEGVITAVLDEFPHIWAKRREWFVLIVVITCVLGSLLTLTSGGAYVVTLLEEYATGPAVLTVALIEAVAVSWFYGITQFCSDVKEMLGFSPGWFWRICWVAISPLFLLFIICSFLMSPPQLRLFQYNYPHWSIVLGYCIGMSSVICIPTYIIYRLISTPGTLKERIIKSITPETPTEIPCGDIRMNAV

With CCCCN1CCN(c2ccc3cc([N+](=O)[O-])ccc3n2)CC1 [2-(4-Butyl-piperazin-1-yl)-6-nitroquinoline (4)] as the compound, how does the Ki read?
The Ki was 0.024 µM.

How did the Ki turn out when CCCCCCCCCCN1CCN(c2ccc3cc([N+](=O)[O-])ccc3n2)CC1 [2-(4-Decyl-piperazin-1-yl)-6-nitroquinoline (10)] was run?
The Ki was 0.0045 µM.

With CCCCCCCCCCCCN1CCN(c2ccc3cc([N+](=O)[O-])ccc3n2)CC1 [2-(4-Dodecyl-piperazin-1-yl)-6-nitroquinoline (12)] as the compound, how does the Ki read?
Its Ki is 0.0161 µM.

For CCN1CCN(c2ccc3cc([N+](=O)[O-])ccc3n2)CC1 [2-(4-Ethyl-piperazin-1-yl)-6-nitroquinoline (2)], which Ki is on record?
Its Ki is 0.0861 µM.

Which Ki does the source give for CCCCCCCN1CCN(c2ccc3cc([N+](=O)[O-])ccc3n2)CC1 [2-(4-Heptyl-piperazin-1-yl)-6-nitroquinoline (7)] here?
The Ki was 0.0541 µM.

How did the Ki turn out when CCCCCCN1CCN(c2ccc3cc([N+](=O)[O-])ccc3n2)CC1 [2-(4-Hexyl-piperazin-1-yl)-6-nitroquinoline (6)] was run?
Its Ki is 0.0729 µM.

For CN1CCN(c2ccc3cc([N+](=O)[O-])ccc3n2)CC1 [2-(4-Methyl-piperazin-1-yl)-6-nitroquinoline (1)], which Ki is on record?
The Ki was 1.3 µM.

Which Ki does the source give for CCCCCCCCCN1CCN(c2ccc3cc([N+](=O)[O-])ccc3n2)CC1 [2-(4-Nonyl-piperazin-1-yl)-6-nitroquinoline (9)] here?
Its Ki is 0.0018 µM.

With CCCCCCCCN1CCN(c2ccc3cc([N+](=O)[O-])ccc3n2)CC1 [2-(4-Octyl-piperazin-1-yl)-6-nitroquinoline (8)] as the compound, how does the Ki read?
The Ki was 0.0208 µM.

With CCCCCN1CCN(c2ccc3cc([N+](=O)[O-])ccc3n2)CC1 [2-(4-Pentyl-piperazin-1-yl)-6-nitroquinoline (5)] as the compound, how does the Ki read?
Its Ki is 0.0805 µM.

CCCN1CCN(c2ccc3cc([N+](=O)[O-])ccc3n2)CC1 [2-(4-Propyl-piperazin-1-yl)-6-nitroquinoline (3)] was tested. Which Ki did it give?
The Ki was 0.496 µM.

Which Ki does the source give for CCCCCCCCCCCN1CCN(c2ccc3cc([N+](=O)[O-])ccc3n2)CC1 [2-(4-Undecyl-piperazin-1-yl)-6-nitroquinoline (11)] here?
The Ki was 0.0126 µM.
